Experimental data reported in patent US20030004157A1, “Use of NK-1 receptor antagonists against benign prostatic hyperplasia” (priority 2001, published 2003).

System: Beagle dogs
Experiment: 39-week toxicity study in the dog
Type: in vivo
Details: 39 weeks; for PROSTATE diff. % vs. control (relative organ weight) / PROSTATE per 100 g BW relative (mean relative organ weight) / TESTES diff. % vs. control (relative organ weight) / TESTES per 100 g BW relative (mean relative organ weight) / PROSTATE absolute (mean absolute organ weight) / TESTES absolute (mean absolute organ weight): male Beagle dogs, oral gavage, SEDDS formulation; for PROSTATE absolute (mean absolute organ weight) / TESTES absolute (mean absolute organ weight): in g (unit assumed); for reduced weights of the prostate gland compared to the control / microscopic changes of the prostate (animals affected): males
Method: In a nine-month study four groups of Beagle dogs (4 animals/gender/group; 5-6 months of age at study start) received oral doses (gavage) of 0 (placebo), 6, 20 and 60 mg/kg/d of 2-(3,5-bis-trifluoromethyl-phenyl)-N-methyl-N-(6-morpholin-4-yl-4-o-tolyl-pyridin-3-yl)-isobutyramide as a SEDDS formulation for 39 weeks. The following variables were investigated: clinical signs, body weights, food consumption, ophthalmoscopy before and at the end of the study, electrocardiography, heart rate, toxicokinetics at different time-points, clinical pathology (hematology, biochemistry, urinalysis) in 3-months intervals, necropsy and tissue preservation, organ weights and histopathology.
Mean absolute organ weights were adjusted to 100 g of the mean terminal body weights=>mean relative organ weights.
Mean relative organ weights were compared to the corresponding control=>% deviation.

Cc1ccccc1-c1cc(N2CCOCC2)ncc1N(C)C(=O)C(C)(C)c1cc(C(F)(F)F)cc(C(F)(F)F)c1 [2-(3,5-bis-trifluoromethyl-phenyl)-N-methyl-N-(6-morpholin-4-yl-4-o-tolyl-pyridin-3-yl)-isobutyramide]
abnormalities in organ systems other than prostate (6, 20 and 60 mg/kg/d oral): no overt abnormalities in any other organ system
liver changes (6, 20 and 60 mg/kg/d oral): Mild changes in the liver (hepatocyte hypertrophy with slightly increased organ weights)
PROSTATE diff. % vs. control (relative organ weight) (6 mg/kg/d): −24%
PROSTATE per 100 g BW relative (mean relative organ weight) (6 mg/kg/d): 0.059
TESTES diff. % vs. control (relative organ weight) (6 mg/kg/d): +1%
TESTES per 100 g BW relative (mean relative organ weight) (6 mg/kg/d): 0.1803
PROSTATE absolute (mean absolute organ weight) (6 mg/kg/d): 8.066
TESTES absolute (mean absolute organ weight) (6 mg/kg/d): 24.577
PROSTATE diff. % vs. control (relative organ weight) (20 mg/kg/d): −37%
PROSTATE per 100 g BW relative (mean relative organ weight) (20 mg/kg/d): 0.049
TESTES diff. % vs. control (relative organ weight) (20 mg/kg/d): +6%
TESTES per 100 g BW relative (mean relative organ weight) (20 mg/kg/d): 0.1804
PROSTATE absolute (mean absolute organ weight) (20 mg/kg/d): 6.413
TESTES absolute (mean absolute organ weight) (20 mg/kg/d): 23.432
PROSTATE diff. % vs. control (relative organ weight) (60 mg/kg/d): −58%
PROSTATE per 100 g BW relative (mean relative organ weight) (60 mg/kg/d): 0.033
TESTES diff. % vs. control (relative organ weight) (60 mg/kg/d): +9%
TESTES per 100 g BW relative (mean relative organ weight) (60 mg/kg/d): 0.1853
PROSTATE absolute (mean absolute organ weight) (60 mg/kg/d): 4.429
TESTES absolute (mean absolute organ weight) (60 mg/kg/d): 24.753
reduced weights of the prostate gland compared to the control (6 mg/kg/d oral): insignificant trend
microscopic changes of the prostate (animals affected) (20 mg/kg/d oral): most
reduced weights of the prostate gland compared to the control (20 mg/kg/d oral): 37%
microscopic changes of the prostate (animals affected) (60 mg/kg/d oral): all males
reduced weights of the prostate gland compared to the control (60 mg/kg/d oral): 58%
